According to US20250144115A1, “AMIDE COMPOUND AS POTASSIUM CHANNEL REGULATOR, AND PREPARATION THEREFOR AND USE THEREOF” (Shanghai Zhimeng Biopharma, Inc., priority 2022, published 2025):

Target: T1, KCNQ2 potassium channels (CHO-KCNQ2 cells) (Homo sapiens, UniProt O43526)
T1 construct: expressed in transfected cells; host or cells: CHO cells stably expressing KCNQ2 (G418 selection in the culture medium)
Assay: Potassium ion channel opener activity test (FDSS/μCELL detection, FluxOR thallium flux)
Assay type: cell-based
Details: 8 concentrations 0.045-100 μM; for EC50: 3 replicate wells; for Emax: ratio at 180 s, read-out: Maximum agonistic rate (%)
Description: Example A1 Potassium Ion Channel Opener Activity Test (FDSS/μ CELL Detection)
Cell preparation: CHO-KCNQ2 cells were cultured in a 175 cm^2 culture flask, and when the cell density grew to 60˜80%, the culture medium was removed and the cells were washed once with 7 mL PBS (Phosphate Buffered Saline), and then 3 mL of 0.25% Trypsin was added for digestion. After completion of digestion, 7 mL of culture medium (90% DMEM/F12+10% FBS+500 μg/mL G418) was added to neutralize, and centrifuged at 800 rpm for 3 min; the supernatant was aspirated, then 5 mL of culture medium was added to resuspend the cells, and the cells were counted.
Cell spreading: according to the cell counting results, the density was adjusted to 3×10^4 cells/well. After standing at room temperature for 30 minutes, the cells were placed in a CO2 incubator at 37° C. overnight, and incubated for 16-18 hours to reach a cell density of about 80%.
Fluorescent dye incubation: Cell culture solution was discarded, 80 μL/well of loading buffer was added and the cells were incubated for 60 minutes at room temperature and protected from light.
Compound incubation: Loading buffer was discarded, 80 μL/well of prepared compound solution was added, and the cells were incubated for 20 min at room temperature and protected from light.
Fluorescence data acquisition: Real-time fluorescence signal recording was performed using an FDSS/μCELL instrument with an excitation wavelength of 480 nm and an emission wavelength of 540 nm, and the signal was recorded once per second. 10 seconds of the baseline was recorded, then 20 μL/well of stimulation buffer was added, and the recording was continued until the end of 180 seconds.
20 mM stock solution of compound in DMSO was prepared, 10 μL of 20 mM compound stock solution was taken into 20 μL of DMSO solution, and a 3-fold serial dilution was performed to form 8 intermediate concentrations; then the intermediate concentrations of the compounds were taken respectively into test buffer, and a 200-fold dilution was performed to obtain the final concentration to be tested, and 80 μL was taken and added to the assay plate.
The highest test concentration was 100 μM, and there was a total of 8 concentrations, i.e., 100, 33.33, 11.11, 3.70, 1.23, 0.41, 0.137, 0.045 μM, respectively, with 3 replicate wells for each concentration.
The experimental data were analyzed by Excel 2007, GraphPad Prism 5.0 software, and the ratio of 180 s was counted to calculate the agonistic effect. The agonistic effect of the compound was calculated by the following equation:
• Environment: Temperature ˜25° C. • Reagent: FluxOR™ detection kit (Invitrogen, Cat #F0017) • The experimental data in the report must meet the following criteria: Z′ Factor>0.5 2. Results: See Table 1 for details, wherein a smaller EC50 indicates a higher activity of the corresponding compound.

T1 sequence (O43526 whole entry): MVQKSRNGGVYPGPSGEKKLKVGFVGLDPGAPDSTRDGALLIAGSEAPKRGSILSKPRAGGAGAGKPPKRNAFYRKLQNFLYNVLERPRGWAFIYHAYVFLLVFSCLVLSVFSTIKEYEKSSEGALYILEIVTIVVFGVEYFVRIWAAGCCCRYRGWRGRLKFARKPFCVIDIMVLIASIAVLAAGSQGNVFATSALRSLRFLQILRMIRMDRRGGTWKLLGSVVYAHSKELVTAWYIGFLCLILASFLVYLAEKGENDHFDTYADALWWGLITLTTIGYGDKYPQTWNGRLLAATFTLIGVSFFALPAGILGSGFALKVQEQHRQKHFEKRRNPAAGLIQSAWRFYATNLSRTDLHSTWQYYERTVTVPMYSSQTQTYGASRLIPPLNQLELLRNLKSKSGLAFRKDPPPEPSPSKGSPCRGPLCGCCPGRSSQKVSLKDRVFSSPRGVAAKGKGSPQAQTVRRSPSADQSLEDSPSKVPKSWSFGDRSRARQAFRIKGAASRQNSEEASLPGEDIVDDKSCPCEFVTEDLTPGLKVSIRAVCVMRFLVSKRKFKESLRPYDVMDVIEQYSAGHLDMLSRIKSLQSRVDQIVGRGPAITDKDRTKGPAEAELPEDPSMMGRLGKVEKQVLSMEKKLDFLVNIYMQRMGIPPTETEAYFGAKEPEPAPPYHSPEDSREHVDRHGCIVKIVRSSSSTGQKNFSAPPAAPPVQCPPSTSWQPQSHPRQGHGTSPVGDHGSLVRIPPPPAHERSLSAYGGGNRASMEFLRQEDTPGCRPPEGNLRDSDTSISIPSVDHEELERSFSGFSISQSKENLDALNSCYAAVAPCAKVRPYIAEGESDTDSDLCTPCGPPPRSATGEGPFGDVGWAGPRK

Row | EC50 [nM] | Emax [%] | SMILES
1 | 86 | 45.6 | Cc1cc(N2CCc3cc(C(F)(F)F)ccc3C2)cc(C)c1NC(=O)CC1(C)CC1 [Compound 3001]
2 | 580 | 28.1 | Cc1cc(N2CCCCc3cc(C(F)(F)F)ccc32)cc(C)c1NC(=O)CC1(C)CC1 [Compound 3002]
3 | 18 | 39.6 | Cc1cc(N2CCOc3cc(C(F)(F)F)ccc3C2)cc(C)c1NC(=O)CC1(C)CC1 [Compound 3003]
4 | 580 | 17.7 | Cc1cc(N2CCCOc3cc(C(F)(F)F)ccc32)cc(C)c1NC(=O)CC1(C)CC1 [Compound 3004]
5 | 110 | 46.7 | Cc1cc(N2CCc3sc(F)cc3C2)cc(C)c1NC(=O)CC1(C)CC1 [Compound 3005]
6 | 270 | 34.9 | Cc1cc(N2CCn3cccc3C2)cc(C)c1NC(=O)CC1(C)CC1 [Compound 3006]
7 | 30 | 41.5 | Cc1ccc2c(c1)CCCCN2c1cc(C)c(NC(=O)CC2(C)CC2)c(C)c1 [Compound 3007]
8 | 17 | 40.9 | Cc1cc(N2CCOc3cc(F)ccc3C2)cc(C)c1NC(=O)CC1(C)CC1 [Compound 3008]
9 | 71 | 36.1 | Cc1ccc2c(c1)OCCCN2c1cc(C)c(NC(=O)CC2(C)CC2)c(C)c1 [Compound 3009]
10 | 3700 | 35.3 | Cc1cc(N2CCCn3cccc3C2)cc(C)c1NC(=O)CC1(C)CC1 [Compound 3010]
11 | 4.3 | 49.4 | Cc1cc(N2CCSc3ccccc3C2)cc(C)c1NC(=O)CC1(C)CC1 [Compound 3011]
